{"source": "patent US20010053796A1", "about": "“Delta-aminolevulinic acid for prevention and treatment of infection microorganisms and parasite” (priority 2000, published 2001)", "key": {"Streptococcus sp.": {"test_system": "Streptococcus sp.", "test": "MIC assay by flat drug disc method", "assay_type": "cell-based", "conditions": "line printed Staphylococcus sp. (first of two), prepared by the inventors", "procedure": "(§1) Pathogenic index bacteria used in this experiment are Edwardsiella tard, Streptococcus sp., Staphylococcus sp., Staphylococcus epidermidis, Pseudomonas sp., Vibrio anguillarum which are collected from the marine fish farm nearby Yeosu. In solid culture, they were cultured in TSA (tryptic soy agar) supplemented with 0.2% NaCl flat media and in liquid culture, they were prepared by culturing in BHI broth for 24 hrs and setting the O.D. value as 1.0. δ-aminolevulinic acid used in this experiment were one on the market (Sigma) and one formulated by inventors of the present invention (Korean patent application No. 1998-41898). Each 0.167 g δ-aminolevulinic acid were dissolved in 1.0 mL sterilized distilled water was used as undiluted solution. 1.0 M δ-aminolevulinic acid was 2-fold diluted with BHI broth by stages up to 64-fold and prepared for test solution to examine pathogenic bacteria proliferation-prohibiting effect. […] In control group, instead of δ-aminolevulinic acid, BHI broth bacteria suspension were mixed with (1:1) and then observed with the same method above. MIC assay by δ-aminolevulinic acid for major pathogenic bacteria of marine cultivating fishes, Edwardsiella tard, Streptococcus sp., Staphylococcus sp., Staphylococcus epidermidis, Pseudomonas sp., Vibrio anguillarum was carried out by flat drug disc method. 100 μL of each bacteria in a culture solution was mixed with fixed amount of top agar and coated to TSA agar. 1.0 M δ-aminolevulinic acid solution was diluted by 2 folds in PBS and 10 μL of each dilution were absorbed to sterilized disc. After incubation at 23˜25° C. for 2˜3 days, antibacterial effect was indicated by measuring the size (mm) of clear zone. In control group, PBS was absorbed into disc instead of δ-aminolevulinic acid dilution solution with the same amount and observed. From the result of this experiment using δ-aminolevulinic acid on the market, proliferation-inhibiting effects of pathogenic bacteria according to δ-aminolevulinic acid concentration are shown in Table 2a (Edwardsiella tard) and Table 2b (Streptococcus sp.). Below 1/32 fold (31 mM) of δ-aminolevulinic acid dilution rate, proliferation of both bacteria was inhibited. […] The experimental result of δ-aminolevulinic acid prepared by the inventors has shown in Table 3 and no difference in effects from δ-aminolevulinic acid on the market."}, "Vibrio anguillarum [1]": {"test_system": "Vibrio anguillarum", "test": "MIC assay by flat drug disc method", "assay_type": "cell-based", "conditions": "prepared by the inventors", "procedure": "as §1"}, "Edwardsiella tarda": {"test_system": "Edwardsiella tarda", "test": "MIC assay by flat drug disc method", "assay_type": "cell-based", "conditions": "prepared by the inventors", "procedure": "as §1"}, "[2]": {"test_system": "Staphylococcus epidermidis", "test": "MIC assay by flat drug disc method", "assay_type": "cell-based", "conditions": "prepared by the inventors", "procedure": "as §1"}, "Pseudomonas sp.": {"test_system": "Pseudomonas sp.", "test": "MIC assay by flat drug disc method", "assay_type": "cell-based", "conditions": "prepared by the inventors", "procedure": "as §1"}, "Staphylococcus sp. [3]": {"test_system": "Staphylococcus sp.", "test": "MIC assay by flat drug disc method", "assay_type": "cell-based", "conditions": "Staphylococcus sp. (second of two lines); prepared by the inventors", "procedure": "as §1"}, "Vibrio anguillarum [4]": {"test_system": "Vibrio anguillarum", "test": "Prevention effect for artificial infection (abdominal injection of bacteria)", "assay_type": "in vivo, Bastardhalibut", "conditions": "for Mortality during Cultivation: dead of 20 fish", "procedure": "The water temperature was maintained at 20° C. (±2° C. ) throughout the experiment.\nAs the same method of above Experiment 1, fishes of both control group and experiment group were prepared and artificially infected by direct abdominal injection of Edwardsiella tarda 10^5 CFU per 1 fish. Each experimental fish was moved to fish tanks for monitoring and monitored for mortality according to infection for 2 weeks and viability after 2 weeks.\nBastardhalibut and Sebastes schlegeli were infected by Vibrio anguillarum through abdominal injection with the same method of fish breeding; δ-aminolevulinic acid treatment and artificial infection carried out in Experiment 1 and 2."}, "[5]": {"test_system": "RTG-2 (Rainbow Trout Gonad)", "conditions": "24 h", "protocol": "δ-aminolevulinic acid feed were prepared to 1.0 M concentration (0. 167 g/mL HBSS) and diluted by 10-fold dilution method. 100 μl of each fish cell line suspension of 2.5×10^5 were placed into 96-well microplate and then, 100 μl of each of the resulting diluted solution, 4 well/dilution unit, were added respectively. Fish cell lines, which were used for this cell toxicity experiment of δ-aminolevulinic acid, were RTG-2 (Rainbow Trout Gonad), FHM (Fathead Minnow Epithelioma) and CHSE (Chinook Salmon Embryo) lotted out from Dr. M. Yoshimizu of the Department of Fisheries, Hokkaido University, Japan. For these experimental cells, 100 U/mL penicillin (Sigma), 100 μl/mL streptomycin (Sigma) and MEM media supplemented with 5% fetal bovine serum (FBS, Gibco) for cell culture were used. Cultured cells in 96-well microplate was incubated for 3 hrs at 15° C. and δ-aminolevulinic acid were added to wells at amounts of 100 μl of 0, 1.0, 10, 50 and 100 mM and incubated for 24 hrs at 18° C. As a control group, instead of δ-aminolevulinic acid, HBSS was added at the same amount. […] Absorbance was measured with an ELISA reader at 570 μl."}, "Vibrio anguillarum [6]": {"test_system": "Vibrio anguillarum", "test": "Treatment effect of infected fry by oral administration in feed", "assay_type": "in vivo, Bastardhalibut", "conditions": "50 fish"}, "Sebastes schlegeli": {"test_system": "Sebastes schlegeli", "test": "Breeding before Scutica artificial infection (mortality during cultivation)", "assay_type": "in vivo", "conditions": "1˜3 weeks; for Mortality during Cultivation: dead of 20 fish", "procedure": "The water temperature was maintained at 20° C. (±2° C.) throughout the experiment."}, "Staphylococcus sp. [7]": {"test_system": "Staphylococcus sp.", "test": "Prevention effect for artificial infection (abdominal injection of bacteria)", "assay_type": "in vivo, Bastardhalibut", "conditions": "for Mortality during Cultivation: dead of 20 fish", "procedure": "The water temperature was maintained at 20° C. (±2° C. ) throughout the experiment. […]\nBastardhalibut and Sebastes schlegeli were infected by Staphylococcus sp. by abdominal injection with the same method of fish breeding δ-aminolevulinic acid treatment and artificial infection carried out in Experiment 1 and 2. Each experimental fish was moved to fish tanks for monitoring and monitored for mortality according to infection for 2 weeks."}}, "data": [{"smiles": "NCC(=O)CCC(=O)O", "note": "[δ-aminolevulinic acid]", "values": [{"measurement": "MIC", "setting": "Streptococcus sp.", "value": 72.9, "unit": "µg/mL"}, {"measurement": "MIC", "setting": "Vibrio anguillarum [1]", "value": 29.9, "unit": "µg/mL"}, {"measurement": "MIC", "setting": "Edwardsiella tarda", "value": 56, "unit": "µg/mL"}, {"measurement": "MIC", "setting": "[2]", "value": 62, "unit": "µg/mL"}, {"measurement": "MIC", "setting": "Pseudomonas sp.", "value": 42.2, "unit": "µg/mL"}, {"measurement": "MIC", "setting": "Staphylococcus sp. [3]", "value": 59.6, "unit": "µg/mL"}, {"measurement": "Viability", "setting": "Vibrio anguillarum [4]; orally, 0.1 ppm in feed", "value": 65, "unit": "%"}, {"measurement": "Mortality during Cultivation", "setting": "Vibrio anguillarum [4]; orally, 0.1 ppm in feed", "value": 7}, {"measurement": "Viability", "setting": "Vibrio anguillarum [4]; orally, 1.0 ppm in feed", "value": 55, "unit": "%"}, {"measurement": "Mortality during Cultivation", "setting": "Vibrio anguillarum [4]; orally, 1.0 ppm in feed", "value": 9}, {"measurement": "Viability", "setting": "Vibrio anguillarum [4]; orally, 10 ppm in feed", "value": 85, "unit": "%"}, {"measurement": "Mortality during Cultivation", "setting": "Vibrio anguillarum [4]; orally, 10 ppm in feed", "value": 3}, {"measurement": "Viability", "setting": "Vibrio anguillarum [4]; orally, 100 ppm in feed", "value": 90, "unit": "%"}, {"measurement": "Mortality during Cultivation", "setting": "Vibrio anguillarum [4]; orally, 100 ppm in feed", "value": 2}, {"measurement": "Viability", "setting": "Vibrio anguillarum [4]; to fish tanks, 0.01 ppm", "value": 65, "unit": "%"}, {"measurement": "Mortality during Cultivation", "setting": "Vibrio anguillarum [4]; to fish tanks, 0.01 ppm", "value": 7}, {"measurement": "Viability", "setting": "Vibrio anguillarum [4]; to fish tanks, 0.1 ppm", "value": 65, "unit": "%"}, {"measurement": "Mortality during Cultivation", "setting": "Vibrio anguillarum [4]; to fish tanks, 0.1 ppm", "value": 7}, {"measurement": "Viability", "setting": "Vibrio anguillarum [4]; to fish tanks, 1.0 ppm", "value": 80, "unit": "%"}, {"measurement": "Mortality during Cultivation", "setting": "Vibrio anguillarum [4]; to fish tanks, 1.0 ppm", "value": 2}, {"measurement": "Viability", "setting": "Vibrio anguillarum [4]; to fish tanks, 10 ppm", "value": 85, "unit": "%"}, {"measurement": "Mortality during Cultivation", "setting": "Vibrio anguillarum [4]; to fish tanks, 10 ppm", "value": 3}, {"measurement": "safe range of toxicity", "setting": "[5]", "value": "below 10 mM"}, {"measurement": "Viability", "setting": "Vibrio anguillarum [6]; feed 0.1 ppm from 4th day of infection", "value": 44, "unit": "%"}, {"measurement": "Viability", "setting": "Vibrio anguillarum [6]; feed 1.0 ppm from 4th day of infection", "value": 72, "unit": "%"}, {"measurement": "Viability", "setting": "Vibrio anguillarum [6]; feed 50 ppm from 4th day of infection", "value": 90, "unit": "%"}, {"measurement": "Viability", "setting": "Vibrio anguillarum [6]; feed 100 ppm from 4th day of infection", "value": 88, "unit": "%"}, {"measurement": "Viability", "setting": "Sebastes schlegeli; oral (100 ppm per feed 1 kg)", "value": 100, "unit": "%"}, {"measurement": "Mortality during Cultivation", "setting": "Sebastes schlegeli; oral (100 ppm per feed 1 kg)", "value": 0}, {"measurement": "Viability", "setting": "Sebastes schlegeli; to fish tanks (10 ppm)", "value": 100, "unit": "%"}, {"measurement": "Mortality during Cultivation", "setting": "Sebastes schlegeli; to fish tanks (10 ppm)", "value": 0}, {"measurement": "Viability", "setting": "Staphylococcus sp. [7]; orally, 0.1 ppm in feed", "value": 55, "unit": "%"}, {"measurement": "Mortality during Cultivation", "setting": "Staphylococcus sp. [7]; orally, 0.1 ppm in feed", "value": 9}, {"measurement": "Viability", "setting": "Staphylococcus sp. [7]; orally, 1.0 ppm in feed", "value": 65, "unit": "%"}, {"measurement": "Mortality during Cultivation", "setting": "Staphylococcus sp. [7]; orally, 1.0 ppm in feed", "value": 7}, {"measurement": "Viability", "setting": "Staphylococcus sp. [7]; orally, 10 ppm in feed", "value": 95, "unit": "%"}, {"measurement": "Mortality during Cultivation", "setting": "Staphylococcus sp. [7]; orally, 10 ppm in feed", "value": 1}, {"measurement": "Viability", "setting": "Staphylococcus sp. [7]; orally, 100 ppm in feed", "value": 90, "unit": "%"}, {"measurement": "Mortality during Cultivation", "setting": "Staphylococcus sp. [7]; orally, 100 ppm in feed", "value": 2}, {"measurement": "Viability", "setting": "Staphylococcus sp. [7]; to fish tanks, 0.01 ppm", "value": 55, "unit": "%"}, {"measurement": "Mortality during Cultivation", "setting": "Staphylococcus sp. [7]; to fish tanks, 0.01 ppm", "value": 9}, {"measurement": "Viability", "setting": "Staphylococcus sp. [7]; to fish tanks, 0.1 ppm", "value": 75, "unit": "%"}, {"measurement": "Mortality during Cultivation", "setting": "Staphylococcus sp. [7]; to fish tanks, 0.1 ppm", "value": 5}, {"measurement": "Viability", "setting": "Staphylococcus sp. [7]; to fish tanks, 1.0 ppm", "value": 90, "unit": "%"}, {"measurement": "Mortality during Cultivation", "setting": "Staphylococcus sp. [7]; to fish tanks, 1.0 ppm", "value": 2}, {"measurement": "Viability", "setting": "Staphylococcus sp. [7]; to fish tanks, 10 ppm", "value": 95, "unit": "%"}, {"measurement": "Mortality during Cultivation", "setting": "Staphylococcus sp. [7]; to fish tanks, 10 ppm", "value": 1}]}]}
